Reference: patent US20230293469A1, “NOVEL PHARMACEUTICAL COMPOSITIONS” (NEUROPRO THERAPEUTICS, INC., priority 2020, published 2023)
Where “and” joins values, the source holds several entries; their conditions need not be identical. Equal entries are not always repeated. Where two headings read alike, the source gives them in different places.

Test: IV bolus PK of NPT-2042 in dog
Assay type: in vivo
Protocol: Assays were performed to determine absolute bioavailability of NPT2042 in two species: dog and rat. The calculation of absolute bioavailability depends on four inputs: the areas under the curves (AUC) for oral and IV, and the oral and IV doses.
Testing was conducted to determine AUC for an IV dose in dog.
The same two dogs were each dosed 2042 IV at 10 mg/kg.
Table 8 provides Noncompartmental Parameters for NPT-2042 for 10 mg/kg Bolus Dosing of NPT-2042 in Dogs (n=2).

[1] = NPT-2042, dog, IV bolus 10 mg/kg, animals 1201A, 1501A, Mean, 10 mg/kg

## CCCCNc1cc(C(=O)N(Cc2ccccc2)Cc2ccccc2)cc(S(N)(=O)=O)c1Oc1ccccc1 [NPT-2042, N,N-Dibenzyl 3-Aminosulfonyl-5-butylamino-4-phenoxybenzamide]
[1]
  C0 (back-extrapolated concentration): 5680 ng/mL and 6440 ng/mL
  CL (total body clearance): 19.5 mL/min/kg and 16.2 mL/min/kg
  Tmax: 4.98 min
  Vz (volume of distribution): 6.44 L/kg and 6.54 L/kg
  t½ (terminal-phase half-life): 3.82 h and 4.67 h
dog, IV bolus 10 mg/kg
  Plasma NPT-2042 concentrations (in words): high and still quantifiable at 24 hours after dosing
dog, IV bolus 10 mg/kg NPT-2042
  Diuresis: lack of diuresis
dog, IV bolus 10 mg/kg, log-linear plots
  Decay profile after bolus dosing: multi-exponential decay
dog, plasma, iv, 10 mg/kg, NPT-2042, dog, IV bolus 10 mg/kg, animals 1201A, 1501A, Mean
  AUC(0-inf): 8560 ng·h/mL
dog, plasma, iv, 10 mg/kg, NPT-2042, dog, IV bolus 10 mg/kg, animals 1201A, 1501A, Mean, read-out: C0 (back-extrapolated concentration)
  C0: 6060 ng/mL
dog, plasma, iv, 10 mg/kg, NPT-2042, dog, IV bolus 10 mg/kg, animals 1201A, 1501A, Mean, read-out: CL (total body clearance) (converted)
  clearance: 17.8 mL/min/kg
dog, plasma, iv, 10 mg/kg, NPT-2042, dog, IV bolus 10 mg/kg, animals 1201A, 1501A, Mean, read-out: Cmax
  Cmax: 5210 ng/mL
dog, plasma, iv, 10 mg/kg, NPT-2042, dog, IV bolus 10 mg/kg, animals 1201A, 1501A, Mean, read-out: Tmax
  Tmax: 4.8 min
dog, plasma, iv, 10 mg/kg, NPT-2042, dog, IV bolus 10 mg/kg, animals 1201A, 1501A, Mean, read-out: Vz (volume of distribution)
  Vd: 6.49 L/kg
dog, plasma, iv, 10 mg/kg, NPT-2042, dog, IV bolus 10 mg/kg, animals 1201A, 1501A, Mean, read-out: t½ (terminal-phase half-life) (converted)
  half-life: 4.25 h
dog, plasma, iv, 10 mg/kg, dog, IV bolus 10 mg/kg, animals 1201A, 1501A, Mean, read-out: Plasma NPT-2042 concentration, Time 0.08 h
  concentration at 0.08 h: 5560 ng/mL
dog, plasma, iv, 10 mg/kg, dog, IV bolus 10 mg/kg, animals 1201A, 1501A, Mean, read-out: Plasma NPT-2042 concentration, Time 1.00 h
  concentration at 1 h: 2240 ng/mL
dog, plasma, iv, 10 mg/kg, dog, IV bolus 10 mg/kg, animals 1201A, 1501A, Mean, read-out: Plasma NPT-2042 concentration, Time 2.00 h
  concentration at 2 h: 1230 ng/mL
dog, plasma, iv, 10 mg/kg, dog, IV bolus 10 mg/kg, animals 1201A, 1501A, Mean, read-out: Plasma NPT-2042 concentration, Time 4.00 h
  concentration at 4 h: 688 ng/mL
dog, plasma, iv, 10 mg/kg, dog, IV bolus 10 mg/kg, animals 1201A, 1501A, Mean, read-out: Plasma NPT-2042 concentration, Time 6.00 h
  concentration at 6 h: 326 ng/mL
dog, plasma, iv, 10 mg/kg, dog, IV bolus 10 mg/kg, animals 1201A, 1501A, Mean, read-out: Plasma NPT-2042 concentration, Time 8.00 h
  concentration at 8 h: 182 ng/mL
dog, hepatic blood flow about 1.5 L/h/kg
  CL as fraction of hepatic blood flow: about ⅔
